Reference: patent publication US5874446A, “Benzopyran derivatives” (Chugai Seiyaku Kabushiki Kaisha, priority 1992, dated 1999)

How the values were obtained:
[1] = test system: Excised Aorta of Rat (thoracic aorta ring preparations); experiment: Test with Excised Aorta of Rat: relaxation of lasting contraction by KCl; format: cell-based, male Sprague Dawley rat; conditions: 50% inhibitory concentration, relaxation of 30 mM KCl contraction, Krebs-Henseleit, 37° C.
Method: Test with Excised Aorta of Rat
The thoracic aorta was excised from a male Sprague Dawley rat (450 to 600 g) and cut into 2 mm wide ring preparations. Each preparation was suspended in 10 ml of an Organ bath containing a Krebs-Henseleit solution (NaCl:119; KCl:4.8; CaCl2.2H2 O:2.53; KH2 PO4 :1.2; MgSO4.7H2 O:1.2; NaHCO3 :24.8; glucose:10(mM); 37° C.) under a tension of 2 g, and a mixed gas of 95% O2 and 5% CO2 was bubbled therethrough. Contraction reactions of the preparation were isometrically recorded by means of an FD pick-up. […] The activity of a test compound to relax a lasting contraction by the addition of KCl was evaluated by obtaining a 50% inhibitory concentration (IC50)
The compounds of the present invention obtained in the foregoing Examples and Cromakalim was used as test compound for comparison.

[2] = test system: Guinea Pig Tracheal Muscle; experiment: Test with Guinea Pig Tracheal Muscle: relaxing activity on spontaneous tension; format: cell-based, male Hartley guinea pig; conditions: Cavia porcellus; 50% relaxing activity; 1 mM aminophylline on spontaneous tension taken as 100%; Krebs-Henseleit, 37° C.
Method: Test with Guinea Pig Tracheal Muscle
The trachea was excised from a male Hartley guinea pig (450 to 550 g) to make chain preparations. The preparation was suspended in a bath containing the abovementioned Krebs-henseleit solution (37° C.) through which a mixed gas of 95% O2 and 5% CO2 was bubbled. Contraction reactions of the preparation were isometrically recorded under a tension of 1 g.
The same test compound as used in Text Example 1 were used.

O=C1CCCCN1[C@@H]1c2cc(C(F)(F)C(F)(F)F)ccc2OC(CF)(CF)[C@H]1O (relative stereo) [Compound 4-2, Trans-6-pentafluoroethyl-2,2-bisfluoromethyl-3,4-dihydro-4-(2-oxo-1-piperidinyl)-2H-1-benzopyran-3-ol]
IC50 [1]: 0.28 nM | IC50 [2]: 6.9 nM

O=C1CCCCN1[C@@H]1c2cc([N+](=O)[O-])ccc2OC(CF)(CF)[C@H]1O (relative stereo) [Compound 6-2, Trans-2,2-bisfluoromethyl-3,4-dihydro-6-nitro-4-(2-oxo-1-piperidinyl)-2H-1-benzopyran-3-ol]
IC50 [1]: 2.6 nM | IC50 [2]: 6.8 nM

CC1(C)Oc2ccc(C#N)cc2[C@@H](N2CCCC2=O)[C@@H]1O (relative stereo) [Cromakalim, reference compound]
IC50 [1]: 170 nM | IC50 [2]: 860 nM

[O-][n+]1ccccc1C1=CC(CF)(CF)Oc2ccc(C(F)(F)C(F)(F)F)cc21 [Compound 48, 2-(6-Pentafluoroethyl-2,2-bisfluoromethyl-2H-1-benzopyran-4-yl)pyridine N-oxide]
IC50 [1]: 1.6 nM | IC50 [2]: 3.9 nM

N#C[N-][n+]1ccccc1C1=CC(CF)(CF)Oc2ccc([N+](=O)[O-])cc21 [Compound 52, 2-(2,2-Bisfluoromethyl-6-nitro-2H-1-benzopyran-4-yl)pyridine N-cyanoimine]
IC50 [1]: 2 nM | IC50 [2]: 12 nM

[O-][n+]1ccccc1C1=CC(CF)(CF)Oc2ccc(C(F)(F)F)cc21 [Compound 50, 2-(2,2-Bisfluoromethyl-6-trifluoromethyl-2H-1-benzopyran-4-yl)pyridine N-oxide]
IC50 [2]: 18 nM

N#C[N-][n+]1ccccc1C1=CC(CF)(CF)Oc2ccc(C(F)(F)C(F)(F)F)cc21 [Compound 55, 2-(6-Pentafluoroethyl-2,2-bisfluoromethyl-2H-1-benzopyran-4-yl)pyridine N-cyanoimine]
IC50 [1]: 0.82 nM | IC50 [2]: 6.3 nM

O=c1ccccn1C1=CC(CF)(CF)Oc2ccc([N+](=O)[O-])cc21 [Compound 12, 2,2-Bisfluoromethyl-6-nitro-4-(1,2-dihydro-2-oxo-1-pyridyl)-2H-1-benzopyran]
IC50 [1]: 2.5 nM | IC50 [2]: 5.9 nM

N#Cc1ccc2c(c1)[C@@H](N1CCCC1=O)[C@H](O)C(CF)(CF)O2 (relative stereo) [Compound 2-2, Trans-6-cyano-2,2-bisfluoromethyl-3,4-dihydro-4-(2-oxo-1-pyrrolidinyl)-2H-1-benzopyran-3-ol]
IC50 [1]: 74 nM | IC50 [2]: 390 nM
